Data as given in patent publication US20080095868A1, “Use of fermented wheat-germ in the feeding and veterinary practice” (priority 2002, published 2008).

System: M. gallisepticum No 1226
Experiment: effect against Mycoplasma gallisepticum infection in chickens (Example 6)
Format: in vivo, Mycoplasma gallisepticum; Arbor Acress chickens
Experimental: The investigations were performed with Arbor Acress chickens of meat type free of M. synoviae infection. The freedom from Mycoplasma synoviae of the animals was verified with systematic serological screening examination in an agglutination test by the help of M. gallisepticum and M. synoviae antigens (Intervet International B.V.M.; Boxmeer, The Netherlands). Furthermore, the animals were tested in an ELISA-test based on monoclonal antibodies and with the use of MYGA test-kit (Diagnosztikum Kft; Budapest, Hungary) and MYSA kit (Svanova, Uppsala, Sweden) [Czifra, Gy. et al.: Avian Dis. 37, 680-688 (1993)]. The serological examinations gave negative results. Furthermore, from the same hatching from which the experimental animals derived, isolation of Mycoplasma was tried from the nasal cavity, trachea and air pocket of 20 1 day old chicks using medium B [Erno H., and Stipkovits, L.: Acta Vet. Scand. 14, 436-449 (1973)] and Frey's media [Frey, M. C. et al.: Am. J. Vet. Res. 29, 2164-2171 (1968)]. This cultivation closed with a negative result, too.
For the infection of the experimental animals M. gallisepticum N^o 1226 was employed which had been previously amplified in medium B for 24 hours. The germ content was 9.5×10^8 pfu/ml (pfu=plaque forming unit).
The experimental groups were treated and infected as follows:
Group 1. was located in a 200 litre box which can be fastened down hermetically, into which 10 ml sterile medium B was sprayed, then the animals were kept in this box for 20 minutes.
Group 3. was infected in identical manner as Group 2., then after location in a third room the animals were fed with a chick breeding nutriment containing VET-HBM in 3 g/kg concentration in the course of the experiment.
Group 4. was infected in identical manner as Group 2., then after location in a fourth room the animals were fed with a nutriment containing 200 mg/kg tiamutin (Biochemie GmbH, Kundl, Austria) in the course of the experiment.
To the judgment of the effectiveness of the treatment the following parameters were investigated: clinical symptoms, changes in body weight, feed conversion ratio; in addition to them pathological, histological and serological examinations as well as Mycoplasma re-isolation were performed. In the course of their evaluation the following result were obtained.
At the end of the experiment all the animals were examined by pathological dissection to air-pocket- and peritoneum inflammation characteristic of the M. gallisepticum infection.
The blood plasma of all the chickens was investigated on slide in a M. gallisepticum agglutination test. The severity of the reaction was scored, and the number of respondent animals and the sum of the scores were compared in a Chie square test. The Group 1. remained negative till the end of the experiment. […] (75 scores).
The re-isolation of the infectious Mycoplasma strain was performed as follows. Following of the infection after 1 hour 5-5 animals were killed. 1-1 cm long pieces of trachea were placed into 2 ml liquid medium B, and after 3 minutes of shaking germ counting were performed in the medium. At the end of the experiment re-isolation of the strain used for infection was attempted from the respiratory organs (trachea, lung, air-pocket) and other organs (brain, liver, spleen, kidney, heart) of all the chickens in that manner that samples were carried from every abovementioned organ to solid medium B by the help of a tampon. The agar slants were cultivated for 10 days then they were evaluated. A portion of the isolates was identified with an epifluorescent method using a specific immune serum.

Q: With `C=C[C@]1(C)C[C@@H](OC(=O)CSCCN(CC)CC)[C@]2(C)[C@H](C)CC[C@]3(CCC(=O)[C@H]32)[C@@H](C)[C@@H]1O` [tiamutin] as the compound, how does the “number of animals exhibiting serological response, M. gallisepticum agglutination test” value (30 animals per group, non-treated Group 2: 25, VET-HBM 3 g/kg, tiamutin 200 mg/kg) read?
A: 8

Q: And the “Mycoplasma re-isolation, number of occasions” value (end of the experiment, Group 2: 64 instances, VET-HBM 3 g/kg, tiamutin 200 mg/kg)?
A: 3

Q: And the clinical symptoms (infected chickens, Group 3 VET-HBM 3 g/kg, Group 4 tiamutin 200 mg/kg in nutriment)?
A: no any clinical symptoms

Q: What about the “gain in body weight” value (infected chickens, VET-HBM 3 g/kg, tiamutin 200 mg/kg in nutriment) of the same compound?
A: of same degree as in the control group

Q: And the feed conversion ratio (infected chickens, VET-HBM 3 g/kg, tiamutin 200 mg/kg, versus control group)?
A: remained at the same level

Q: And the “sum of the scores of the serological reaction” value (non-treated Group 2: 75 scores, VET-HBM 3 g/kg, tiamutin 200 mg/kg)?
A: 11

Q: And the “pathological alterations (air-pocket- and peritoneum inflammation)” value (versus infected non-treated Group 2, VET-HBM 3 g/kg, tiamutin 200 mg/kg)?
A: developed significantly more scarcely

Q: And the “histological parameters (lymphohystiocytic bronchitis, lobular interstitial pneumoniae)” value (versus non-infected Group 1, VET-HBM 3 g/kg, tiamutin 200 mg/kg)?
A: remained on the same level as in the Group 1.
